In PMC8795197, “Safety and activity of WX-0593 (Iruplinalkib) in patients with ALK- or ROS1-rearranged advanced non-small cell lung cancer: a phase 1 dose-escalation and dose-expansion trial” (Signal Transduction and Targeted Therapy, 2022):
pIC50: −log10 of the molar value. Like-named read-outs stand apart in the source and are kept apart here.

How the values were obtained:
[1] = test system: Ba/F3 (EML4-ALK-WT); experiment: Cell proliferation inhibition assay; format: cell-based
[2] = test system: Ba/F3 CD74-ROS1-D2033N; experiment: Growth of transfected Ba/F3 cells (CellTiter-Glo, 3 days); format: cell-based; details: Mus musculus, BaF3
Procedure: (§1) Harvest cells during the logarithmic growth period and count cells using blood counting chamber. Adjust cell concentration with culture medium. Add 90µl cell suspensions to two 96-well plates to the final cell density as described before. Incubate the plate overnight in humidified incubator at 37℃ with 5% CO2. Dispense 10µl drug solution (10×) to each well (triplicate for each concentration), and the DMSO final concentration in culture medium is 0.1% [v/v]. Culture the plates for 3 days.On Day 3, Read luminescent using Multi Label Reader. The software of GraphPad Prism was used to calculate IC50. The graphical curves were fitted using a nonlinear regression model with a sigmoidal dose response.

[3] = test system: Ba/F3 SLC34A2-ROS1-L2026M; experiment: as above; format: cell-based; details: Mus musculus, BaF3
Procedure: as §1

[4] = test system: Ba/F3 SLC34A2-ROS1; experiment: as above; format: cell-based; details: Mus musculus, BaF3
Procedure: as §1

[5] = test system: Ba/F3 CD74-ROS1-S1986F; experiment: as above; format: cell-based; details: Mus musculus, BaF3
Procedure: as §1

[6] = test system: Ba/F3 SLC34A2-ROS1-G2032R; experiment: as above; format: cell-based; details: Mus musculus, BaF3
Procedure: as §1

[7] = test system: Ba/F3 CD74-ROS1-L1951R; experiment: as above; format: cell-based; details: Mus musculus, BaF3
Procedure: as §1

[8] = test system: Ba/F3 CD74-ROS1-S1986Y; experiment: as above; format: cell-based; details: Mus musculus, BaF3
Procedure: as §1

[9] = test system: Ba/F3 (EML4-ALK-C1156Y); experiment: Cell proliferation inhibition assay; format: cell-based
[10] = test system: patients treated with ALK TKIs; details: cited from earlier work
[11] = test system: NCI-H1975 (EGFR mutant L858R/T790M); experiment: Cell proliferation inhibition assay; format: cell-based
[12] = test system: Ba/F3 (EML4-ALK-L1196M); experiment: Cell proliferation inhibition assay; format: cell-based
[13] = test system: 27 non-target kinases (MAP4K4 ... INSR, EGFR wild type); experiment: Inhibitory study of 27 non-target kinases; format: biochemical; details: except for EGFR wild type
[14] = test system: LU-01-0319R NSCLC PDX; experiment: PDX model resistant to crizotinib; format: in vivo; details: WX-0593 2.5, 5, 10 mg/kg; ceritinib 10/20 mg/kg; brigatinib 10 mg/kg
[15] = test system: Ba/F3 ALK-I1171S; experiment: Growth of transfected Ba/F3 cells (CellTiter-Glo, 3 days); format: cell-based; details: Mus musculus, BaF3, ALK-I1171S
Procedure: as §1, with “days. On” for “days.On”

[16] = test system: Ba/F3 ALK-F1174C; experiment: as above; format: cell-based; details: Mus musculus, BaF3, ALK-F1174C
Procedure: as §1, with “days. On” for “days.On”

[17] = test system: Ba/F3 ALK-T1151Tins; experiment: as above; format: cell-based; details: Mus musculus, BaF3
Procedure: as §1, with “days. On” for “days.On”

[18] = test system: Ba/F3 ALK-F1174L; experiment: as above; format: cell-based; details: Mus musculus, BaF3
Procedure: as §1, with “days. On” for “days.On”

[19] = test system: Ba/F3 ALK-G1202R; experiment: as above; format: cell-based; details: Mus musculus, BaF3
Procedure: as §1, with “days. On” for “days.On”

[20] = test system: Ba/F3 ALK-C1156Y; experiment: as above; format: cell-based; details: Mus musculus, BaF3
Procedure: as §1, with “days. On” for “days.On”

[21] = test system: Ba/F3 ALK-V1180L; experiment: as above; format: cell-based; details: Mus musculus, BaF3
Procedure: as §1, with “days. On” for “days.On”

[22] = test system: Ba/F3 ALK-L1152R; experiment: as above; format: cell-based; details: Mus musculus, BaF3
Procedure: as §1, with “days. On” for “days.On”

[23] = test system: Ba/F3 ALK-I1171T; experiment: as above; format: cell-based; details: Mus musculus, BaF3
Procedure: as §1, with “days. On” for “days.On”

[24] = test system: Ba/F3 ALK-I1171N; experiment: as above; format: cell-based; details: Mus musculus, BaF3
Procedure: as §1, with “days. On” for “days.On”

[25] = test system: Ba/F3 ALK-G1202del; experiment: as above; format: cell-based; details: Mus musculus, BaF3
Procedure: as §1, with “days. On” for “days.On”

[26] = test system: Ba/F3 ALK-WT; experiment: as above; format: cell-based; details: Mus musculus, BaF3
Procedure: as §1, with “days. On” for “days.On”

[27] = test system: Ba/F3 ALK-L1152P; experiment: as above; format: cell-based; details: Mus musculus, BaF3
Procedure: as §1, with “days. On” for “days.On”

[28] = test system: Ba/F3 ALK-L1196M; experiment: as above; format: cell-based; details: Mus musculus, BaF3
Procedure: as §1, with “days. On” for “days.On”

[29] = test system: Ba/F3 ALK-G1269A; experiment: as above; format: cell-based; details: Mus musculus, BaF3
Procedure: as §1, with “days. On” for “days.On”

[30] = test system: Karpas299 (NPM-ALK); experiment: Cell proliferation inhibition assay; format: cell-based
[31] = Grades 1 and 2 adverse reactions
[32] = serious adverse events in more than 2 patients

Structure (SMILES): COc1cc(N2CCC(N3CCN(C)CC3)CC2)ccc1Nc1ncc(Cl)c(Nc2ccccc2P(C)(C)=O)n1 [Brigatinib]
- growth inhibition [1]: significantly inhibits the growth
- pIC50 [2]: 7.44
- pIC50 [3]: 7.32
- pIC50 [4]: 7.66
- pIC50 [5]: 7.69
- pIC50 [6]: 6.07
- pIC50 [7]: 6.11
- pIC50 [8]: 7.90
- growth inhibition [9]: significantly inhibits the growth
- coughing [10, 31]: 26%
- diarrhea [10, 31]: 36%
- fatigue [10, 31]: 36%
- headache [10, 31]: 26%
- nausea [10, 31]: 45%
- diarrhea, % of patients [10]: 41%
- dose reduction due to TEAEs, % of patients [10]: 14%
- DLTs in the tolerability study ([10]; one Grade 3 ALT increased, one Grade 4 dyspnea and Grade 3 hypoxia): Two
- coughing [10, 32]: 4%
- dyspnea [10, 32]: 4%
- hypoxia [10, 32]: 4%
- pleural effusion [10, 32]: 4%
- pneumonia [10, 32]: 7%
- growth inhibition [11]: somewhat inhibits the growth
- growth inhibition [12]: significantly inhibits the growth
- inhibitory activity against non-target kinases [13]: no significant inhibitory activity
- anti-tumor effect [14]: significant effects against crizotinib-induced resistance
- pIC50 ([15]; first listing (r12)): 7.03
- pIC50 ([15]; second listing (r19)): 7.40
- pIC50 ([16]; first listing (r10)): 7.01
- pIC50 ([16]; second listing (r15)): 7.29
- pIC50 [17]: 7.46
- pIC50 [18]: 7.51
- pIC50 [19]: 6.47
- pIC50 [20]: 7.41
- pIC50 [21]: 7.98
- pIC50 [22]: 7.98
- pIC50 [23]: 7.72
- pIC50 [24]: 7.46
- pIC50 [25]: 6.00
- pIC50 [26]: 7.60
- pIC50 [27]: 8.82
- pIC50 [28]: 7.51
- pIC50 [29]: 7.51
- growth inhibition [30]: significantly inhibits the growth
